Assay results taken from patent US20160113931A1, “Method of treating and/or preventing neurodegenerative diseases” (University of Macau, priority 2014, published 2016).

What was measured:
zebrafish [1] = assay: MPTP-induced dopaminergic neuron loss in zebrafish (TH whole-mount immunostaining); format: in vivo, Danio rerio; conditions: positive control, MPTP 48 h
Procedure: Zebrafish at 1 dpf were exposed to BHDPC (3, 10, 30 μM) with or without MPTP for 48 h. Then fish were fixed for whole mount immunostaining. The morphology change of dopaminergic neurons in zebrafish brain was indicated by immunostaining with antibody against tyrosine hydroxylase (TH). Statistical analysis of TH density was accessed in each 10 fish/group. […] Zebrafish at 1 dpf were exposed to different concentrations of BHDPC with or without MPTP for 48 h. Then fish were fixed for whole mount immunostaining.
(§1) The AB strain of wild type zebrafish (Danio rerio) was maintained as described in the Zebrafish Handbook. Zebrafish were staged by days post fertilization […]. For breeding, groups of male and female (3:2) adult zebrafish were placed in 10-L plastic aquarium equipped with spawning nets in the evening. In the following morning, eggs were collected from the breeding group tanks. Normally developed fertilized eggs were selected under a stereomicroscope for further studies. The MPTP manipulation was performed with appropriate safety precautions and all MPTP-containing water was bleached.
Whole-mount immunostaining in zebrafish was performed as previously described. 3 dpf Zebrafish larvae were fixed with 4% paraformaldehyde in PBS for 30 min, […] (TH) staining was performed as previously described. Briefly, zebrafish were fixed in 4% paraformaldehyde in PBS for 5 h. Fixed samples were blocked (2% lamb serum and 0.1% BSA in PBST) for 1 h at room temperature. A mouse monoclonal anti-tyrosine hydroxylase (TH) antibody (Millipore, Billerica, MD, USA) was used as the primary antibody and incubated with samples overnight at 4° C. On the next day, samples were washed six times with PBST (each wash lasted 30 min), followed by incubation with Alexa Fluor® 488 goat anti-mouse antibodies. After immunostaining, zebrafish were mounted with 3.5% methylcellulose and photographed. Semi-quantification of the area of TH^+ cells was assessed by an investigator, unaware of the drug treatment, using Image-J software. Results are expressed as percentage of area of TH^+ cells in untreated normal control groups.
In this example, the in vivo animal model was used to determine the neuroprotective effect of BHDPC. Anti-tyrosine hydroxylase (TH) whole mount immunostaining was used to determine dopaminergic neuronal populations in zebrafish larvae (FIG. 15A). TH activity is the key enzyme responsible for dopamine biosynthesis in the CNS. […] The dopamine reuptake inhibitor nomifensine (Nom), which protected against MPTP-induced neurotoxicity in vivo was used as a positive control. The treatment of larvae with 30 μM of nomifensine, a positive control drug attenuated MPTP-induced neurotoxicity, with TH^+ density […] by 30% compared to the MPTP group.
L-deprenyl, which is a substituted phenethylamine used in treatment of early Parkinson's disease, was used as a positive control.

zebrafish [2] = assay: MPTP-induced deficit of locomotion behavior in zebrafish larvae; format: in vivo, Danio rerio; conditions: 150 μM L-dopa with MPTP, positive control
Procedure: Three dpf zebrafish embryos were co-incubated with 10 μM MPTP and BHDPC at the indicated concentrations for 96 hours, and zebrafish larval co-treated with MPTP and 150 μM L-dopa was used as positive control. After treatment, zebrafish were collected to perform locomotion behavior test using Viewpoint Zebrabox system and total distances travelled in 10 min were calculated.
as §1
In addition, MPTP markedly altered the swimming behavior of the zebrafish as a consequence of DA neuronal injury. […] BHDPC ameliorated MPTP-induced deficit of swimming behavior. At the same condition, MPTP-induced deficit of swimming behavior were rescued by positive controls, levodopa (L-dopa) (FIG. 16).

In the case of CN1Cc2c(N)cccc2C(c2ccccc2)C1 (stereo not drawn) [nomifensine, reference compound], the “TH+ density reduced by, compared to the MPTP group” value (zebrafish [1]; 30 μM nomifensine) is reported as 30%.
C#CCN(C)[C@H](C)Cc1ccccc1 [L-deprenyl, reference compound] was tested, and the “TH+ density compared to the MPTP group (FIG. 15B)” value (zebrafish [1]) was “significant increase”.
In the case of N[C@@H](Cc1ccc(O)c(O)c1)C(=O)O [levodopa, reference compound], the “MPTP-induced deficit of swimming behavior (total distance travelled in 10 min)” value (zebrafish [2]) is reported as “rescued”.
